From the text: An aqueous dispersion containing pyrene and one of the stabilizers/surface-altering agents listed above was stirred with milling media until particle size was reduced below 500 nm (as measured by dynamic light scattering).

| Substance | Sample (relative) <Vmean>rel (relative sample velocity) | Sample <Vmean> (ensemble-average velocity) [um/s] |
| --- | --- | --- |
| Tyloxapol | −0.02 | 0.42 |
| Tween 80 | 0.17 | 0.94 |

Source: patent publication US11878072B2, “Compositions and methods utilizing poly(vinyl alcohol) and/or other polymers that aid particle transport in mucus” (priority 2012, dated 2024)
